Read-outs that look alike come from different tables or passages of the source.
Legend:
Assay type in all cases: cell-based
[1] = test system: TDP-43 BiFC cells; test: Cell viability (stained nuclei count) in TDP-43-BiFC cells; conditions: Forskolin-only group = 100%
Procedure: (§1) To screen for new TDP-43 aggregation inhibitors, a TDP-43-BiFC cell model that facilitates observation of TDP-43 aggregate formation in living cells was used. Specifically, TDP-43-BiFC cells were dispensed into a 384-well plate, and the next day, the compounds prepared according to Examples 1 to 46 were treated at concentrations of 3 and 10 µM, respectively, together with Forskolin (treatment concentration 30 µM), which is a compound that induces TDP-43 aggregation by activating the phosphorylation enzyme PKA. After 48 hours, nuclei within cells were stained using Hoechst (treatment concentration 1 µg/mL), and BiFC fluorescence intensity was automatically quantified using Operetta (PerkinElmer) to count the stained nuclei in each well from the entire plate. The group treated only with Forskolin, which induces TDP-43 aggregation, was set as the reference point with 100% TDP-43 aggregation state, and the effect was confirmed by the formula "(BiFC fluorescence intensity by the compounds synthesized according to the Examples of the disclosure - fluorescence intensity of the untreated control group)/(fluorescence intensity of the control group treated only with Forskolin that induces TDP-43 aggregation - fluorescence intensity of the untreated control group) × 100". In addition, the degree of cytotoxicity induced by the newly synthesized compounds was also calculated using the formula "(number of stained nuclei in the compound-treated group/number of stained nuclei in the Forskolin-treated group) × 100", with the group treated only with Forskolin as the reference point at 100% viability. From the treatment results, substances that inhibit intracellular TDP-43 aggregation were identified through screening from a series of candidates based on the criteria of 80% or more TDP-43 aggregation inhibition and 60% cell viability at a compound treatment concentration of 3 µM.
(§2) Furthermore, to confirm the TDP-43 aggregation inhibitory effect according to the concentration of the compounds screened in Experimental Example 3, the screened compounds were treated to […] at concentrations of 0.003, 0.01, 0.03, 0.1, 0.3, 1, 3, and 10 µM, respectively, together with Forskolin (treatment concentration 30 µM), which is a TDP-43 aggregation-inducing substance. After 48 hours, cell images were examined to analyze the TDP-43 aggregation reaction and degree of cytotoxicity. The IC50 and toxicity of the compounds were analyzed by nonlinear regression analysis using Prism software (GraphPad). The calculated results for representative compounds are shown in Table 4 below: TDP-43 protein aggregation inhibitory effect and cell viability of novel compounds.

[2] = target: T1, TDP-43 protein (Homo sapiens, UniProt Q13148); test: TDP-43 aggregation inhibition in TDP-43-BiFC cell model (Forskolin-induced); conditions: for inhibition at 3 µM: read-out: TDP-43 protein aggregation inhibitory effect: Aggregation inhibitory effect (%) (@3 uM)
T1 construct: BiFC fluorescent-protein fragments (two complementary halves); expressed in transfected cells
T1 sequence (Q13148 whole entry, the tested form may be a part): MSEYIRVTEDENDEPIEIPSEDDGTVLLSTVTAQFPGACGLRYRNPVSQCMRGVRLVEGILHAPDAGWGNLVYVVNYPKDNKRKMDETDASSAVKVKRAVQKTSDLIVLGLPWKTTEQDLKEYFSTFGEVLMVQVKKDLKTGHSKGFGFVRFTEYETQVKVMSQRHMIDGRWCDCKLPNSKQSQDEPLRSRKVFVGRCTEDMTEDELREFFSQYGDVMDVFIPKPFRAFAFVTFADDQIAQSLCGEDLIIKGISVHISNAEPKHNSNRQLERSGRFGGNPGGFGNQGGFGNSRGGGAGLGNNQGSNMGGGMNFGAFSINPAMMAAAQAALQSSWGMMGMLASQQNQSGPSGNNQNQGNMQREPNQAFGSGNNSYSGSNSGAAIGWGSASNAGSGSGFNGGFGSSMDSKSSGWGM
Procedure: as §1, §2

[3] = test system: Tau-BiFC cells; test: Cell viability (stained nuclei count) in Tau-BiFC cells
Procedure: (§3) To screen for new tau aggregation inhibitors, a Tau-BiFC cell model that facilitates observation of tau oligomer formation in living cells was used. Tau-BiFC cells were dispensed into a 384-well plate, and the next day, the compounds prepared according to Examples 1 to 46 were treated at concentrations of 1, 3, and 10 µM, respectively, together with Forskolin (treatment concentration 30 µM), which is a compound that induces tau aggregation by activating the tau phosphorylation enzyme PKA. After 48 hours, nuclei within cells were stained using Hoechst (treatment concentration 2 µg/mL), and BiFC fluorescence intensity was automatically quantified using Operetta (Perkin Elmer) to count the stained nuclei in each well from the entire plate. The group treated only with Forskolin, which induces tau aggregation, was set as the reference point with 100% tau aggregation state, and the effect was confirmed by the formula "BiFC fluorescence intensity by the compounds synthesized according to the Examples of the disclosure/(fluorescence intensity of the control group treated only with Forskolin that induces tau aggregation - fluorescence intensity of the untreated control group) × 100". In addition, the degree of cytotoxicity induced by the newly synthesized compounds was also calculated using the formula "(number of stained nuclei in the compound-treated group/number of stained nuclei in the Forskolin-treated group) × 100", with the group treated only with Forskolin as the reference point at 100% viability. From the treatment results, substances that inhibit intracellular tau aggregation were identified through screening from a series of candidates based on the criteria of 70% or more tau aggregation inhibition and 100% cell viability at a compound treatment concentration of 10 µM.
(§4) To confirm the tau aggregation inhibitory effect according to the concentration of the compounds screened in Experimental Example 1, the screened compounds were treated to Tau-BiFC cells at concentrations of 0.03, 0.1, 0.3, 1, 3, 10, and 30 µM, respectively, together with Forskolin (treatment concentration 30 µM), which is a tau aggregation-inducing substance. After 48 hours, cell images were examined to analyze the tau aggregation reaction and degree of cytotoxicity. The IC50 and toxicity of the compounds were analyzed by nonlinear regression analysis using Prism software (GraphPad). The calculated results for representative compounds are shown in Table 3 below: Tau aggregation inhibitory effect and cell viability of novel compounds.

[4] = target: T2, Tau (Homo sapiens, UniProt P10636); test: Tau aggregation inhibition in Tau-BiFC cell model (Forskolin-induced)
T2 construct: BiFC fluorescent-protein fragments (two complementary halves on two tau copies); expressed in transfected cells
T2 sequence (P10636 1-441 isoform P10636-8): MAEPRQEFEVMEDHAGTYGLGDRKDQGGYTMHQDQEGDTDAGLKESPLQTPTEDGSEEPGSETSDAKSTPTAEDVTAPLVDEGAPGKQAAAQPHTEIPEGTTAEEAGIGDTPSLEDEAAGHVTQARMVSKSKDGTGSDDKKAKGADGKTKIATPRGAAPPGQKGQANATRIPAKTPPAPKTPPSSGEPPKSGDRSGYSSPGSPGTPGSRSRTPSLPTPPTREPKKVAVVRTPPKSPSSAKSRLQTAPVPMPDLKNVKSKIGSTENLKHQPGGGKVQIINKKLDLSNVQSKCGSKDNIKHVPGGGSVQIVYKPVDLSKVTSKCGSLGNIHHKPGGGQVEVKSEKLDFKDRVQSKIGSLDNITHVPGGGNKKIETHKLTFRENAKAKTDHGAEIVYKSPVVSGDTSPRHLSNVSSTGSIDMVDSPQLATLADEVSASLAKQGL
Procedure: as §3, §4

[5] = @3 uM, TDP-43 BiFC cells, Forskolin 30 µM, 48 hours
[6] = @10 µM, Tau-BiFC cell line, Forskolin-only group = 100%
[7] = Tau-BiFC cell line, Forskolin 30 µM, 48 hours, 0.03-30 µM, read-out: Tau aggregation inhibitory effect IC50

SMILES	Cell viability (%) (@ 3 uM) [1]	inhibition at 3 µM [2, 5]	Cell viability (% @10µM) [3, 6]	IC50 [4]	inhibition at 3 µM [2]	IC50 [2]	Cell viability (% @10µM) ([3]; 48 h, 10 µM)	IC50 [4, 7]	IC50 ([4]; read-out: Tau aggregation inhibitory effect IC50, Tau-BiFC cell line, Forskolin 30 µM, 48 hours, 0.03-30 µM)
CC(C)(C)OC(=O)N1CCN(c2nc3ccc(NN=C(C#N)C#N)cc3s2)CC1 [Compound 22, tert-butyl 4-(6-(2-(dicyanomethylene)hydrazinyl)benzo[d]thiazol-2-yl)piperazine-1-carboxylate]	130.7%	66.5%	–	–	–	–	–	–	–
N#CC(C#N)=NNc1ccc2nc(N3CCCC(F)C3)oc2c1 (stereo not shown) [Compound 44, (2-(3-fluoropiperidin-1-yl)benzo[d]oxazol-6-yl)carbonohydrazonoyl dicyanide]	85.0%	–	100%	12 nM	71.1%	–	–	–	–
CC(=O)N(N=C(C#N)C#N)c1ccc2nc(N3CCOCC3)sc2c1 [Compound 37, acetyl(2-morpholinobenzo[d]thiazol-6-yl)carbonohydrazonoyl dicyanide]	61.3%	–	85%	24 nM	91.2%	0.7 nM	–	–	–
N#CC(C#N)=NNc1ccc2nc(-c3cccs3)sc2c1 [Comparative compound 5, N-(2-(thiophen-2-yl)benzo[d]thiazol-6-yl) carbonohydrazonoyl dicyanide, reference compound]	–	–	70%	7300 nM	–	–	–	–	–
N#CC(C#N)=NNc1ccc2nc(N3CCC[C@@H](F)C3)oc2c1 [Compound 47, (R)-N-(2-(3-fluoropiperidin-1-yl)benzo[d]oxazol-6-yl)carbonohydrazonoyl dicyanide]	–	–	100%	117 nM	–	–	–	–	–
C[C@@H]1CN(c2nc3ccc(NN=C(C#N)C#N)cc3s2)C[C@H](C)N1C(=O)OC(C)(C)C [Compound 29, (2R,6S)-tert-butyl 4-(6-(2-(dicyanomethylene)hydrazinyl)benzo[d]thiazol-2-yl)-2,6-dimethylpiperazine-1-carboxylate]	96.2%	47.2%	–	–	–	–	97%	36 nM	–
N#CC(C#N)=NNc1ccc2nc(-c3ccccc3)sc2c1 [Comparative compound 2, N-(2-phenylbenzo[d]thiazol-6-yl) carbonohydrazonoyl dicyanide, reference compound]	–	–	65%	2800 nM	–	–	–	–	–
N#CC(C#N)=NNc1cc2oc(N3CCOCC3)nc2cc1Cl [Compound 19, (5-chloro-2-morpholinobenzo[d]oxazol-6-yl)carbonohydrazonoyl dicyanide]	97.0%	–	100%	453 nM	92.6%	–	–	–	–
N#CC(C#N)=NNc1ccc2nc(-c3ccc(F)cc3)sc2c1 [Comparative compound 3, N-(2-(4-fluorophenyl)benzo[d]thiazol-6-yl) carbonohydrazonoyl dicyanide, reference compound]	–	–	50%	3200 nM	–	–	–	–	–
N#CC(C#N)=NNc1ccc2nc(N3CC[C@H](F)C3)oc2c1 [Compound 43, (S)-(2-(3-fluoropyrrolidin-1-yl)benzo[d]oxazol-6-yl)carbonohydrazonoyl dicyanide]	89.0%	–	100%	–	92.9%	–	–	–	28 nM
N#CC(C#N)=NNc1ccc2nc(N3CCC[C@H](F)C3)oc2c1 [Compound 42, (S)-(2-(3-fluoropiperidin-1-yl)benzo[d]oxazol-6-yl)carbonohydrazonoyl dicyanide]	62.4%	–	100%	20 nM	64.7%	–	–	–	–
CN(N=C(C#N)C#N)c1ccc2nc(N3C4CCC3COC4)sc2c1 [Compound 36, (2-(3-oxa-8-azabicyclo[3.2.1]octan-8-yl)benzo[d]thiazol-6-yl)(methyl)carbonohydrazonoyl dicyanide]	–	–	97%	136 nM	–	–	–	–	–
N#CC(C#N)=NNc1ccc2nc(N3CCCCC3)oc2c1 [Compound 46, (2-(piperidin-1-yl)benzo[d]oxazol-6-yl)carbonohydrazonoyl dicyanide]	73.6%	–	100%	16 nM	81.4%	320 nM	–	–	–
N#CC(C#N)=NNc1ccc2nc(N3CCCC3)oc2c1 [Compound 45, (2-(pyrrolidin-1-yl)benzo[d]oxazol-6-yl)carbonohydrazonoyl dicyanide]	73.6%	–	98%	4 nM	81.1%	371 nM	–	–	–
CN(C)c1ccc(-c2nc3ccc(NN=C(C#N)C#N)cc3s2)cc1 [Comparative compound 4, N-(2-(4-(dimethylamino)phenyl)benzo[d]thiazol-6-yl) carbonohydrazonoyl dicyanide, reference compound]	–	–	80%	–	–	–	–	3100 nM	–
